# Measured values from ChEMBL document CHEMBL1133952, “Identification of E2F-1/Cyclin A antagonists” (Bioorg Med Chem Lett, 2001).
# Residues, ends and D or L forms follow the SMILES beside them. *: point of attachment. Cyclohexanecarbonyl = O=C(C1CCCCC1)*; Cyclopentanecarbonyl = O=C(C1CCCC1)*; Cyclopropanecarbonyl = O=C(C1CC1)*; Isobutyryl = CC(C)C(=O)*; Piv = CC(C)(C)C(=O)*; Propionyl = CCC(=O)*; Bz = O=C(c1ccccc1)*
# Test: In vitro inhibitory activity against E2F-1/Cyclin A was determined using ELISA assay
row,Molecule,IC50 [µM]
1,CC(C)C[C@H](NC(=O)[C@H](CC(=O)O)NC(=O)[C@H](CC(C)C)NC(=O)[C@H](CCCN=C(N)N)NC(=O)[C@H](CCCN=C(N)N)NC(=O)[C@H](CCCCN)NC(=O)[C@@H](NC(=O)[C@@H]1CCCN1)C(C)C)C(=O)O,0.1
2,CC(=O)N1CCC[C@H]1C(=O)N[C@H](C(=O)N[C@@H](CCCCN)C(=O)N[C@@H](CCCN=C(N)N)C(=O)N[C@@H](CCCCN)C(=O)N[C@@H](CC(C)C)C(=O)N[C@H](Cc1ccccc1)C(=O)NCC(=O)O)C(C)C,0.25
3,CC(=O)N1CCC[C@H]1C(=O)N[C@H](C(=O)N[C@@H](CCCCN)C(=O)N[C@@H](CCCN=C(N)N)C(=O)N[C@H](CCCCN)C(=O)N[C@@H](CC(C)C)C(=O)N[C@@H](Cc1ccccc1)C(=O)NCC(=O)O)C(C)C,5
4,CC(=O)N[C@@H](CCCN=C(N)N)C(=O)N[C@@H](CCCCN)C(=O)N[C@@H](CC(C)C)C(=O)N[C@@H](Cc1ccccc1)C(=O)NCC(=O)O,30
5,CC(=O)N1CCC[C@H]1C(=O)N[C@H](C(=O)N[C@@H](CCCCN)C(=O)N[C@@H](CCCN=C(N)N)C(=O)N[C@@H](CCCCN)C(=O)N[C@@H](CC(C)C)C(=O)N[C@@H](Cc1ccccc1)C(=O)NCC(=O)O)C(C)C,0.1
6,CC(=O)N1CCC[C@H]1C(=O)N[C@H](C(=O)N[C@@H](CCCCN)C(=O)N[C@H](CCCN=C(N)N)C(=O)N[C@@H](CCCCN)C(=O)N[C@@H](CC(C)C)C(=O)N[C@@H](Cc1ccccc1)C(=O)NCC(=O)O)C(C)C,45
7,CC(=O)N[C@@H](CCCCN)C(=O)N[C@@H](CC(C)C)C(=O)N[C@@H](Cc1ccccc1)C(=O)NCC(=O)O (Ac-KLFG-OH),45
8,CC(C)C[C@H](NC(=O)[C@H](CCCCN)NC(=O)[C@H](CCCN=C(N)N)NC(=O)[C@H](CCCCN)NC(=O)c1ccccc1)C(=O)N[C@@H](Cc1ccccc1)C(=O)NCC(=O)O (Bz-KRKLFG-OH),1.5
9,CC(C)C[C@H](NC(=O)[C@H](CCCCN)NC(=O)[C@H](CCCN=C(N)N)NC(=O)[C@H](CCCCN)NC(=O)C1CCCCC1)C(=O)N[C@@H](Cc1ccccc1)C(=O)NCC(=O)O (Cyclohexanecarbonyl-KRKLFG-OH),0.45
10,CC(C)C[C@H](NC(=O)[C@H](CCCCN)NC(=O)[C@H](CCCN=C(N)N)NC(=O)[C@H](CCCCN)NC(=O)C1CCCC1)C(=O)N[C@@H](Cc1ccccc1)C(=O)NCC(=O)O (Cyclopentanecarbonyl-KRKLFG-OH),0.35
11,CC(C)C[C@H](NC(=O)[C@H](CCCCN)NC(=O)[C@H](CCCN=C(N)N)NC(=O)[C@H](CCCCN)NC(=O)C1CC1)C(=O)N[C@@H](Cc1ccccc1)C(=O)NCC(=O)O (Cyclopropanecarbonyl-KRKLFG-OH),0.15
12,CC(C)C[C@H](NC(=O)[C@H](CCCCN)NC(=O)[C@H](CCCN=C(N)N)NC(=O)[C@H](CCCCN)NC(=O)C(C)C)C(=O)N[C@@H](Cc1ccccc1)C(=O)NCC(=O)O (Isobutyryl-KRKLFG-OH),0.15
13,CC(C)C[C@H](NC(=O)[C@H](CCCCN)NC(=O)[C@H](CCCN=C(N)N)NC(=O)[C@H](CCCCN)NC(=O)C(C)(C)C)C(=O)N[C@@H](Cc1ccccc1)C(=O)NCC(=O)O (Piv-KRKLFG-OH),0.15
14,CCC(=O)N[C@@H](CCCCN)C(=O)N[C@@H](CCCN=C(N)N)C(=O)N[C@@H](CCCCN)C(=O)N[C@@H](CC(C)C)C(=O)N[C@@H](Cc1ccccc1)C(=O)NCC(=O)O (Propionyl-KRKLFG-OH),0.45
15,"CC(C)C[C@H](NC(=O)[C@H](CC(N)=O)NC(=O)[C@H](CCCN=C(N)N)NC(=O)C(CS)NC(=O)[C@H](C)NC(=O)C(N)CO)C(=O)N[C@@H](Cc1ccccc1)C(=O)NCC(=O)O (single isomer, unassigned)",0.2
16,Ac-AKRKLFG-OH,0.2
17,Ac-KRKLFG-OH,1
18,H-PAKRKLFG-OH,0.1
19,H-PVKARADL-OH,> 100
